Experimental data as given in PMC9862759 (Viruses, 2023).
Like-named read-outs stand apart in the source and are kept apart here.

What was measured:
HEK-293T-ACE2^h cells = assay: MTT cytotoxicity assay on host cells (4 h); format: cell-based, human; details: for CC0 (maximum nontoxic concentration) / TC50 (concentration reducing cell viability by 50%): MTT, 4 h
[1] = molecular target: SARS-CoV-2 spike RBD protein (Severe acute respiratory syndrome coronavirus 2, UniProt P0DTC2); assay: biochemical; format: binding
Beas-2B cells = assay: MTT cytotoxicity on human normal cell line Beas-2B (24 h); format: cell-based; details: for IC50: Homo sapiens, BEAS-2B, 24 h, read-out: IC50 Values of Human Normal Cell Lines, Beas-2B
LO2 cells = assay: MTT cytotoxicity on human normal cell line LO2 (24 h); format: cell-based; details: for IC50: Homo sapiens, L02, 24 h, read-out: IC50 Values of Human Normal Cell Lines, LO2
HEK 293 cells = assay: MTT cytotoxicity on human normal cell line HEK 293 (24 h); format: cell-based; details: for IC50: Homo sapiens, HEK293, 24 h, read-out: IC50 Values of Human Normal Cell Lines, HEK 293
SARS-CoV-2 pseudovirus [2] = tested on: SARS-CoV-2 pseudovirus
SARS-CoV-2 pseudovirus [3] = assay: microbe, parasite or virus in culture; details: Severe acute respiratory syndrome-related coronavirus, read-out: IC50 (inhibition of pseudovirus entry into host cells)

| Structure (SMILES) | CC0 (maximum nontoxic concentration) (HEK-293T-ACE2^h cells) | TC50 (concentration reducing cell viability by 50%) (HEK-293T-ACE2^h cells) | Kd [1] | IC50 (Beas-2B cells) | IC50 (LO2 cells) | IC50 (HEK 293 cells) | SI (ratio of TC50 to IC50) (SARS-CoV-2 pseudovirus [2]) | IC50 (SARS-CoV-2 pseudovirus [2]; read-out: IC50 (inhibition of pseudovirus entry into host cells)) | IC50 (SARS-CoV-2 pseudovirus [3]) | cytotoxicity to the host cells (in words) (HEK-293T-ACE2^h cells; 500 μM) | binding signal [1] | cytotoxic effect (in words), Beas-2B (Beas-2B cells; tested dose of 500 μM) | cytotoxic effect (in words), LO2 (LO2 cells; tested dose of 500 μM) | cytotoxic effect (in words), HEK 293 (HEK 293 cells; tested dose of 500 μM) |
| --- | --- | --- | --- | --- | --- | --- | --- | --- | --- | --- | --- | --- | --- | --- |
| O=c1c(O)c(-c2ccc(O)cc2)oc2cc(O)cc(O)c12 [compound 14, Kaempferol] | 200 µM | >200 µM | 18.5 ± 5.49 µM | > 200 µM | > 200 µM | > 200 µM | >5.77 | 34.6 ± 7.69 µM | < 50 µM |  |  |  |  |  |
| O=c1c(O)c(-c2ccc(O)c(O)c2)oc2cc(O)cc(O)c12 [compound 15, Quercetin] | 300 µM | >500 µM | 11.2 ± 3.85 µM | > 500 µM | > 500 µM | > 500 µM |  |  |  |  |  |  |  |  |
| O=c1c(O)c(-c2cc(O)c(O)c(O)c2)oc2cc(O)cc(O)c12 [compound 16, Myricetin] | 300 µM | >500 µM |  | > 500 µM | > 500 µM | > 500 µM |  |  |  | did not demonstrate any cytotoxicity | 0.60 nm | did not show any significant cytotoxic effect | did not show any significant cytotoxic effect | did not show any significant cytotoxic effect |
| Oc1cc(O)c2c(c1)O[C@H](c1ccc(O)c(O)c1)[C@@H](O)[C@@H]2c1c(O)cc(O)c2c1O[C@H](c1ccc(O)c(O)c1)[C@H](O)C2 [compound 30, Procyanidin B-4] | 300 µM | >500 µM |  | > 500 µM | > 500 µM | > 500 µM | >3.30 |  | 151 ± 28.1 µM |  |  |  |  |  |
| Oc1cc(O)c2c(c1)O[C@H](c1ccc(O)c(O)c1)[C@H](O)[C@H]2c1c(O)cc(O)c2c1O[C@H](c1ccc(O)c(O)c1)[C@H](O)[C@H]2c1c(O)cc(O)c2c1O[C@H](c1ccc(O)c(O)c1)[C@H](O)C2 [compound 31, Procyanidin C-1] | 300 µM | >500 µM |  | > 500 µM | > 500 µM | > 500 µM | >2.90 |  | 173 ± 20.7 µM |  |  |  |  |  |
